Laboratory results reported in patent publication US12215067B2, “Chemical compounds targeting the eye and use thereof in the treatment of eye diseases” (BIOPHYTIS, priority 2019, dated 2025).

Tests used:
[1] = test system: primary cultures of RPE of adult pigs; assay: In vitro photoprotection of RPE cells illuminated with blue light in the presence of A2E; assay type: cell-based, pig; settings: Sus scrofa, RPE, A2E 30 μM, survival 24 h after illumination; for viability at 5 µM: 5 μM compound; for viability at 10 µM: 10 μM compound; for viability at 20 µM: 20 μM compound
Text: In addition to better distribution in the target-tissue, selecting new compounds must also be based on good photo-protective activity that limits the loss of the cells of the RPE and thus reducing the retinal degeneration observed during the AMD and other degenerative diseases such as Retinitis pigmentosa and Stargardt's disease. At the cellular level, on cultures of cells the RPE coming from pig retina, Fontaine et al. (2016) have shown that a treatment with norbixin (BIO201) protects the cells of the RPE against apoptosis following an illumination in the presence of A2E (80% survival 24 h after exposure). This same screening test according to the percentage of photoprotection was used so as to determine its modulation by and the chemical compounds derived from norbixin (C) object of the present invention in comparison with the photo-protective effect of norbixin and characterize these modulations from a statical standpoint.
The test in vitro described hereinabove and intended to study the photo-protective effect of norbixin was used so as to quantify the photo-protective effects of the various chemical compounds derived from norbixin (C) on the cells of the RPE illuminated with blue light in the presence of A2E (FIG. 3). The photo-protective effect of the molecules was evaluated in a phototoxicity cellular model induced by treatment by A2E followed by an illumination with blue light. The term “blue radiation” means the radiation corresponding to the blue band of the visible light spectrum, i.e. of a wavelength comprised between 435 and 490 nm. This model uses primary cultures of RPE of adult pigs. The cell survival is quantified thanks to a test of cellular viability. At −48 h the compounds to be tested (in solution at 5 mM in the DMSO) are added to obtain the final concentrations of 1 to 20 μM) then at −19 h of the A2E (final concentration 30 μM) and the cells (time 0 h) are illuminated. 24 h after the survival of the cells is measured. The acquisition of images, as well as the processing thereof, are carried out using a fluorescence microscope controlled by the Metamorph software and a dedicated quantification program. The experiments are conducted on a 96-well microplate in quadruplicate and the experiment is reproduced at least four times. The results are expressed in the form of a ratio representing the number of living cells in the wells treated by the molecules to be tested, divided by the number of living cells in the controlled wells (treated by the dilution medium without A2E). This test made it possible hereinabove to reveal the photo-protective activity of norbixin (Fontaine et al. 2016).

[2] = Pharmacokinetic study via oral administration in mice, plasma concentrations; assay type: in vivo, mice C57BL/6; settings: C57BL/6, mouse, in vivo, po, 50 mg/kg
Experimental: (§1) The pharmacokinetic study of the chemical compounds (C) following the oral administration thereof was conducted using mice C57BL/6 (January, 53940 The Genest Saint Isle, France). The chemical compounds derived from norbixin (C) were administered at a dose of 50 mg/kg of body weight. After administration, the blood was sampled at the tail at t=0.25 h; 0.5 h; 1 h; 3 h; 6 h and 8 h. The blood samples were centrifuged and the plasmas taken. The dosage of the plasma samples made it possible to determine pharmacokinetic parameters, namely Cmax, which corresponds to the maximum concentration observed after the administration of the molecule, Tmax which is the time required to reach maximum concentration after administration of the molecule and the AUC: the area under the curve which corresponds to the plasma exposure (FIG. 2).
(§2) The LC-MSMS analysis is carried out with a HPLC 1200 Infinity chain (Agilent Technologies, Santa-Clara, United States), a UV detector and a mass spectrometer QQQ6420 (Agilent Technologies Santa-Clara, United States). The injection volume is 5 μL. The chemical compounds C are eluted on an inverse phase column C18 (2.1*50 mm, particles 3 μm; Ace-C18-Excel, AIT) with a gradient of acetonitrile and water (containing 0.1% formic acid) and a flow rate of 0.3 mL/min. The conditions of the gradient can change according to the chemical compound C analyzed. The UV detector analyzes at 460 nm and the mass spectrometer analyzed in Mode MRM—Positive.
(§3) Table 2 discloses the pharmacokinetic results of the chemical compounds C following the administration p.o. 50 mg/kg in D-α-Tocopheryl polyethylene glycol 1000 succinate (VitE-TPGS) 20% in a sodium bicarbonate buffer (0.1M).

[3] = Pharmacokinetic study via oral administration in mice, ocular concentrations; assay type: in vivo, mice C57BL/6; settings: for Tmax: C57BL/6, mouse, eye, po; for Eye Exposure 50 mg/kg p.o. AUC: Table 3, repeats the eye exposure of Table 2
Experimental: as §1
In parallel, the ocular concentrations of the chemical compounds derived from norbixin (C) were dosed in the following way (FIG. 1): both eyes of each mouse were taken in Precellys tubes and stored at −80° C. until the time of dosing. The eyes are then ground in the Precellys tubes with a bench homogenizer, Fast-prep (Fischer Scientific, Hampton, United States) in a mixture of organic solvents, in a first step with 500 μL of chloroform/methanol (1/1, v/v) then 500 μL of chloroform/dichloromethane (1/1, v/v). The supernatants are recovered at each step and transferred to a 96-well plate of 2 mL.
For the quantification of the chemical compounds C, a calibration curve is carried out with 8 standards (5 to 5,000 ng/mL) in the same organic solvent mixtures and transferred (100 μL) to the 96-well plate of 2 mL.
The supernatants and standards are evaporated in a EZ2 (Genevac, Ipswich, United Kingdom), without heating, then taken with 100 μL of DMSO/methanol (20:80, v/v) before being transferred to a 96-well plate of 200 μL.
as §2, §3

[4] = mice, p.o. 50 mg/kg in VitE-TPGS 20% in sodium bicarbonate buffer (0.1M)

SMILES	Cmax [2] [ng/mL]	Plasma Exposure [2] [µg·h/mL]	Tmax [2] [min]	Tmax [3, 4] [min]	Eye Exposure 50 mg/kg p.o. AUC [3] [ng · h/eye]	Eye CMax [3, 4] [ng/eye]	Eye Exposure ([3]; mice, p.o. 50 mg/kg in VitE-TPGS 20% in sodium bicarbonate buffer (0.1M), area under the curve) [ng · h/eye]	viability at 5 µM [1] [%]	viability at 10 µM [1] [%]	viability at 20 µM [1] [%]
CC(=C/C=C/C(C)=C/C=C/C=C(C)/C=C/C=C(C)/C=C/C(=O)NCCc1ccc(O)cc1)/C=C/C(=O)O [C16, 1-[4-hydroxyphenylethanamido](2E,4E,6E,8E,10E,12E,14E,16Z,18E)-4,8,13,17-tetramethylicosa-2,4,6,8,10,12,14,16,18-nonaenedioate]	10500	13.23	60	30	8.7	7.4		70.2	81.7	26.8
CC(=C/C=C/C(C)=C/C=C/C=C(C)/C=C/C=C(C)/C=C/C(=O)N1CCC(C(=O)O)CC1)/C=C/C(=O)O [C18, 1-[4-carboxypiperidinamido](2E,4E,6E,8E,10E,12E,14E,16Z,18E)-4,8,13,17-tetramethylicosa-2,4,6,8,10,12,14,16,18-nonaenedioate]	61600	948.84	30	120	307.8	27.7		27.3	43.1	63.8
CC(=C/C=C/C(C)=C/C=C/C=C(C)/C=C/C=C(C)/C=C/C(=O)N[C@H]1CC[C@H](O)CC1)/C=C/C(=O)O [C19, 1-[(E)-4-hydroxycyclohexamido](2E,4E,6E,8E,10E,12E,14E,16Z,18E)-4,8,13,17-tetramethylicosa-2,4,6,8,10,12,14,16,18-nonaenedioate]	6620	22.8	15	30	37.5	5.7		60.6	60.6	79.9
CCCOC1CCN(C(=O)/C=C/C(C)=C/C=C/C(C)=C/C=C/C=C(C)/C=C/C=C(C)\C=C\C(=O)O)CC1 [C22, 1-[4-n-propoxypiperidinamido](2E,4E,6E,8E,10E,12E,14E,16Z,18E)-4,8,13,17-tetramethylicosa-2,4,6,8,10,12,14,16,18-nonaenedioate]	12800	37.25	15	120	358.5	42.1		64.5	72.8	66

The next lines start with results.

Cmax [2] [ng/mL]	Plasma Exposure [2] [µg·h/mL]	Tmax [2] [min]	Tmax [3, 4] [min]	Eye Exposure 50 mg/kg p.o. AUC [3] [ng · h/eye]	Eye CMax [3, 4] [ng/eye]	Eye Exposure ([3]; mice, p.o. 50 mg/kg in VitE-TPGS 20% in sodium bicarbonate buffer (0.1M), area under the curve) [ng · h/eye]	SMILES	viability at 5 µM [1] [%]	viability at 10 µM [1] [%]	viability at 20 µM [1] [%]
30400	108.1	60	60	533.2	64.3		CC(=C/C=C/C(C)=C/C=C/C=C(C)/C=C/C=C(C)/C=C/C(=O)NCCN1CCOCC1)/C=C/C(=O)O [C10, 1-[2-morpholinoethanamido](2E,4E,6E,8E,10E,12E,14E,16Z,18E)-4,8,13,17-tetramethylicosa-2,4,6,8,10,12,14,16,18-nonaenedioate]	15.5	27.4	80.3
29300	186.3	30	60	538.4	50.7		CC(=C/C=C/C(C)=C/C=C/C=C(C)/C=C/C=C(C)/C=C/C(=O)N1CCC(O)CC1)/C=C/C(=O)O [C12, 1-[4-hydroxypiperidinamido](2E,4E,6E,8E,10E,12E,14E,16Z,18E)-4,8,13,17-tetramethylicosa-2,4,6,8,10,12,14,16,18-nonaenedioate]	7.7	14.3	59.6
27900	139.7	30	60	461.1	60.7		CC(=C/C=C/C(C)=C/C=C/C=C(C)/C=C/C=C(C)/C=C/C(=O)NCC(C)(C)N1CCOCC1)/C=C/C(=O)O [C13, 1-[2-methyl-2-(4-morpholinyl)propylamido](2E,4E,6E,8E,10E,12E,14E,16Z,18E)-4,8,13,17-tetramethylicosa-2,4,6,8,10,12,14,16,18-nonaenedioate]	8	0.5	8
19000	162.2	30	60	322.5	43.2		CC(=C/C=C/C(C)=C/C=C/C=C(C)/C=C/C=C(C)/C=C/C(=O)N1CCC(CO)CC1)/C=C/C(=O)O [C14, 1-[4-hydroxymethylpiperidinamido](2E,4E,6E,8E,10E,12E,14E,16Z,18E)-4,8,13,17-tetramethylicosa-2,4,6,8,10,12,14,16,18-nonaenedioate]	3.1	46.8	79.3
17300	46.99	30	30	108.5	22.8	108.5	CC(=C/C=C/C(C)=C/C=C/C=C(C)/C=C/C=C(C)/C=C/C(=O)N1C[C@@H](C)O[C@@H](C)C1)/C=C/C(=O)O [C15]	5.4	10	58.5
35000	160.4	60	120	421.9	80.4		COC1CCCN(C(=O)/C=C/C(C)=C/C=C/C(C)=C/C=C/C=C(C)/C=C/C=C(C)\C=C\C(=O)O)C1 (stereo not shown) [C20, 1-[3-methoxypiperidinamido](2E,4E,6E,8E,10E,12E,14E,16Z,18E)-4,8,13,17-tetramethylicosa-2,4,6,8,10,12,14,16,18-nonaenedioate]	65.6	65.6	79
